Results from patent US20240002424A1, “HEXOSAMINE COMPOUNDS AND METHODS THEREOF” (National Institute of Immunology, priority 2021, published 2024).

Assays:
Assay type in all cases: cell-based, human
Jurkat cells = assay: NeuAz expression on the cell surface by SPAAC with DBCO-Cy5 and flow cytometry, competition with Ac4ManNAz (1c); details: for NeuAz expression upon co-incubation with Ac4ManNAz: Ac4ManNAz (Z) 50 μM plus analogue at 10, 25, 50 μM; for NeuAz expression upon co-incubation with Ac4ManNAz / reduction in NeuAz expression upon co-incubation: 24 h; for reduction in NeuAz expression upon co-incubation: 0-50 μM with 1c 50 μM, simultaneous addition
Method: FIG. 5 illustrates competitive processing by compounds of the present invention (ManNAc compounds). ManNAc compounds competitively reduce the expression of N-azidoacetyl-D-neuraminic acid (NeuAz)-carrying sialoglycans through the metabolic processing of Ac4ManNAz. Jurkat (human T-lymphoma) cells were incubated with Ac4ManNAz (Z) (50 μM) alone, co-incubated with GL-2, GL-3, MA-2, or MA-3 (at various concentrations such as 10,
25, and 50 μM) for 24 h. Expression of N-azidoacetyl-D-neuraminic acid (NeuAz) on the cell surface sialoglycans was estimated using strain-promoted azide-alkyne cycloaddition (SPAAC) with DBCO-Cy5 and analyzed by flow cytometry. […] GL-2 was used for comparative study and the structure of this compound is as below.
Jurkat cells (3.0×10^5 cells/mL; 2.5 mL per well in 6-well plates) in complete medium were treated with either vehicle (D) or Compound 1c; Untreated Jurkat cells, without addition of vehicle, were also included as additional controls. Cells were harvested at 48 h, washed thrice with PBS (3×0.5 mL) (3000×g, 2.0 min). Prior to the last wash cells were counted and were aliquoted to 1.0×10^6 cells per sample in 1.5 mL microcentrifuge tubes and centrifuged. The cells were gently resuspended in PBS ([…]) and treated with DBCO-Cy5 ([…]) and incubated at 37° C. (on a Torrey-Pines dry heating bath with mild shaking). After one hour, the cells were washed using FSB (0.5 mL, 3000×g, 2.0 min, room temperature), resuspended in PBS (250 mL), treated with PI (2.5 mg/mL), and analyzed using BD FACSCanto and FACSDiva Version 6.1.3. The cells were gated for PI-negative population for 10,000 events. Two replicate samples were prepared for each conditions and each sample was counted twice.
Estimation of NeuAz expression by 1c in the presence of peracetylated ManNAc analogues: Jurkat cells (3.0×10^5 cells/mL in 3.0 mL per well in 6-well plates) were incubated with (i) D, (ii) 1a, 1b, 1c, or 1d alone (50 mM) or (iii) 1a, 1b, or 1d (50 mM) in combination with 1c (50 mM). After 24 h, cells were harvested, washed using FSB, aliquoted to 5.0×10^5 cells per sample, and processed as mentioned above for estimation of NeuAz expression using DBCO-Cy5 ([…]). Experiments using HL-60 cells were performed using the same procedure. […]
Effect of GlcNAc and ManNAc analogues on NeuAz expression: Jurkat cells were treated with 1a, 1b, 2a, or 2b (10, 25, and 50 mM for each analogue) in combination with 1c (50 mM). Cells treated with 1c (50 mM) alone were considered as a reference. After 24 h, cells were harvested, processed, labelled with DBCO-Cy5 ([…]), and analysed by flow cytometry as mentioned above.
In order to evaluate the metabolism, Jurkat (human T-lymphoma) cells were selected and incubated with ManNAc analogues either alone (50 μM) or in combination with 1c (50 μM) for 48 h. Expression of NeuAz on cell surface was estimated by flow cytometry through the copper-free bio-orthogonal strain-promoted azide-alkyne cycloaddition (SPAAC) reaction using dibenzocyclooctyne-Cy5 (DBCO-Cy5). The conditions for click reaction were optimized for various concentrations of DBCO-Cy5 and time course of SPAAC reaction in Jurkat cells. Based on the optimization results, incubation time of 30 min at 37° C. for 5.0×10^5 cells (pre-incubated with 1c for 48 h) with 20 μM of DBCO-Cy5 in 100 μL total volume for experiments with ManNAc analogues was chosen. […] In order to test the dose-dependency of this inhibitory effect on NeuAz expression and to establish competitive metabolic processing, Jurkat cells were first treated with either 1a or 1b (0-50 μM) followed by addition of 1c (50 μM) at 12 h and estimation of NeuAz at 48 h. As expected, the suppression of NeuAz expression was substantially higher when added with a 12 h delay compared to simultaneous addition, in a dose-dependent manner. […] By contrast simultaneous addition resulted only in a 10% reduction of NeuAz for both 1a and 1b (FIG. 6C and FIG. 7B).

HL-60 cells [1] = assay: Total and glycoside bound sialic acids by periodate-resorcinol assay; details: 100 μM, 48 h
Method: Total sialic acids were measured following reported procedures. HL-60 cells (3.0×10^5 cells/mL in 10 mL complete medium in 10 cm diameter Petri dishes) were incubated with D, 1a, 1b, 1c, 1d, 1e, 1f, 1g, 2a, or 2b (100 mM each), along with untreated (U) controls. After 48 h, cells were harvested, washed with PBS (3×5.0 mL; 3000×g, for 2.0 min), aliquoted to 2×10^6 cells per sample and resuspended in PBS (150 mL) in 1.5 mL microcentrifuge tubes. Cells were lyzed by three freeze-thaw cycles and the total lysates were subjected to periodate-resorcinol assay. Briefly, lysates (150 mL) were treated with 0.4 M aqueous periodic acid (6.67 mM) or (2.5 mL) and incubated either on ice for 15 min (for measurement of total sialic acids) or at 37° C. for 1.0 h (for measurement of glycoconjugate bound sialic acids). About 10 mL of reagent cocktail was prepared using 6% w/v of aqueous resorcinol (1.0 mL), 2.5 mM copper (II) sulfate (1.0 mL), 44% of concentrated hydrochloric acid (4.4 mL), and water (3.6 mL). The mixture was then treated with the reagent cocktail (250 mL per sample), boiled at 100° C. for 10 min, rapidly quenched in an ice-bath and treated with tert-butanol (250 mL). The contents were centrifuged and the supernatants were aliquoted (200 mL) into 96-well plates and the absorbance at 630 nm was measured. At least three replicates were prepared for each condition.

HL-60 cells [2] = assay: Cell surface sialyl-Lewis-X (CD15s) by anti-CD15s (CSLEX1) flow cytometry; details: 50 μM, 24 h
Method: Effect of ManNAc analogues on the expression of sialyl-Lewis-X and Lewis-X: HL-60 cells (3.0×10^5 cells/mL in 2.0 mL complete medium in 6 well plate) were treated with D (vehicle), 1a, 1b, 1c, 1d, 1e, 1f, or 1g (50 PM), along with untreated (U) control. After 24 h, cells were harvested and washed with PBS (3×0.5 mL, 3000×g, 3.0 min at room temperature). Prior to last wash, cells were counted using Z2 coulter counter and aliquoted at 2.5×10^5 cells per sample and stained with either mouse anti-human CD15s (CSLEX1) (1.25 μg/mL) or mouse anti-human CD15 (HI98) (2.5 μg/mL) in HEPES/CaCl2) buffer (30 mM HEPES, 110 mM NaCl, 10 mM KCl, 2 mM MgCl2, 10 mM glucose, 1.5 mM CaCl2) containing 0.1% bovine serum albumin, pH 7.3) (total volume of 100 μL) for 30 min at 4° C. Cells were washed with HEPES/CaCl2 buffer (2×0.5 mL) and stained with AlexaFluor488-conjugated anti-mouse IgM (2.5 μg/mL) (for both CD15s and CD15) in 100 μL HEPES/CaCl2 for 30 min at 4° C. Cells were washed with HEPES/CaCl2 buffer (2×0.5 mL), resuspended in PBS (0.2 mL), treated with PI (2.5 μg/ml) and analysed by BD FACSVerse. Samples treated with (i) isotype antibodies followed by secondary antibody and (ii) secondary antibody alone were prepared as controls. Single Cells were gated for PI-negative population for 10,000 events and analysed by flow cytometry. Two replicate samples were prepared for each condition and each sample was counted twice. Three independent experiments were performed. Data was analysed using FlowJo V10. For plotting graph and calculation of significant probability ‘p’ values, two-way ANOVA with Dunnett's multiple comparison tests was employed in GraphPad Prism 8.
Time course of CD15s expression: HL-60 cells (3.0×10^5 cells/mL in 2.5 mL complete medium in 6-well plates) were incubated with D, 1a, 1b, or 1d (50 mM). At each time point, from day 1 to day 6, the cells were harvested from the entire contents of the well, washed, and aliquoted to 5.0×10^5 cells per sample, and immuno-stained using anti-CD15s (CSLEX1) antibody as mentioned above. On day 3, 4, and 5 complete media (1.0 mL) was added to each remaining well in order to compensate for media exhaustion. No contents were removed from the well during the period.

HL-60 cells [3] = assay: Cell density as a measure of proliferation/cytotoxicity; details: 100 μM, cell density measured at 24, 48, and 72 h
HL-60 cells [4] = assay: NeuAz expression by SPAAC with DBCO-Cy5 and flow cytometry, competition with 1c; details: 50 μM with 1c 50 μM, 24 h
Method: Estimation of NeuAz expression by 1c in the presence of peracetylated ManNAc analogues: Jurkat cells (3.0×10^5 cells/mL in 3.0 mL per well in 6-well plates) were incubated with (i) D, (ii) 1a, 1b, 1c, or 1d alone (50 mM) or (iii) 1a, 1b, or 1d (50 mM) in combination with 1c (50 mM). After 24 h, cells were harvested, washed using FSB, aliquoted to 5.0×10^5 cells per sample, and processed as mentioned above for estimation of NeuAz expression using DBCO-Cy5 ([…]). Experiments using HL-60 cells were performed using the same procedure.
Having confirmed metabolic acceptability in Jurkat cells, the compounds were tested on HL-60 (human acute myeloid leukemia) cells which are a reliable model for neutrophil adhesion. The effect on competitive suppression of NeuAz expression was studied using 1c as a reporter. HL-60 cells were treated with 1c either alone (50 μM) or in combination with ManNAc analogues (50 μM), including the straight chain derivatives, for 24 h followed by DBCO-Cy5 ligation. […] The decreasing ability of linear alkyl moieties (1d-1g), as a function of chain length, for suppression of NeuAz expression is in contrast to the cycloalkyl moieties. […] Similarly, 1a induced a reduction of 40% compared to only a 15% reduction by 1f.

| SMILES | NeuAz expression upon co-incubation with Ac4ManNAz (Jurkat cells) | glycoside bound sialic acid levels (in words) (HL-60 cells [1]) | increase in binding of CSLEX1 antibody (sLeX) compared to controls (HL-60 cells [2]) [fold] | decrease in cell density (HL-60 cells [3]) [%] | ratio of total sialic acids to glycoside bound sialic acids vs untreated cells (HL-60 cells [1]) | total sialic acid levels (in words) (HL-60 cells [1]) | reduction in NeuAz expression upon co-incubation (Jurkat cells) | further results |
| --- | --- | --- | --- | --- | --- | --- | --- | --- |
| CC(=O)OC[C@H]1OC(OC(C)=O)[C@@H](NC(=O)C2CCC2)[C@@H](OC(C)=O)[C@@H]1OC(C)=O (mixture of isomers) [Compound 1b, (3S,4R,5S,6R)-6-(acetoxymethyl)-3-(cyclobutanecarboxamido)tetrahydro-2H-pyran-2,4,5-triyl triacetate] | reduced competitively in a dose-dependent manner |  |  |  |  |  |  |  |
| CC(=O)OC[C@H]1OC(OC(C)=O)[C@H](NC(=O)C2CCC2)[C@@H](OC(C)=O)[C@@H]1OC(C)=O (mixture of isomers) [Compound 2b, (3R,4R,5S,6R)-6-(acetoxymethyl)-3-(cyclobutanecarboxamido)tetrahydro-2H-pyran-2,4,5-triyl triacetate] | not |  |  |  |  |  |  |  |
| CC(=O)OC[C@H]1O[C@H](OC(C)=O)[C@@H](NC(=O)CN=[N+]=[N-])[C@@H](OC(C)=O)[C@@H]1OC(C)=O [Compound 1c, 1,3,4,6-tetra-O-acetyl-2-azidoacetylamino-2-deoxy-α-D-mannopyranose] |  | comparable to untreated cells | 1.4 | ~10 |  |  |  | NeuAz expression / DBCO-Cy5 signal, compound alone (Jurkat cells; 50 μM alone, 48 h): robust expression of NeuAz |
| CCC(=O)N[C@@H]1[C@@H](OC(C)=O)O[C@H](COC(C)=O)[C@@H](OC(C)=O)[C@@H]1OC(C)=O [Compound 1e, 1,3,4,6-tetra-O-acetyl-2-(1-propanoyl)amino-2-deoxy-α-D-mannopyranose] |  |  | ~2.5 |  | higher ratios of free sialic acid |  |  | NeuAz expression with respect to 1c alone (100%) (HL-60 cells [4]): 65%; suppression of NeuAz expression (in words) (HL-60 cells [4]): significant suppression; increase in glycoside bound sialic acid levels (HL-60 cells [1]): ~10%; increase in total sialic acid levels vs untreated cells (HL-60 cells [1]): 2.3 fold |
| CC(=O)OC[C@H]1O[C@@H](OC(C)=O)[C@H](NC(=O)C2CC2)[C@@H](OC(C)=O)[C@@H]1OC(C)=O [Compound 2a, 1,3,4,6-tetra-O-acetyl-2-cyclopropanoylamino-2-deoxy-β-D-glucopyranose] | not | comparable to untreated cells |  | ~10 | lower ratios | comparable to untreated cells | negligible reduction |  |
| CC(=O)OC[C@H]1OC(OC(C)=O)[C@H](NC(=O)C2CCC2)[C@@H](OC(C)=O)[C@@H]1OC(C)=O (stereo partly drawn) [Compound 2b, (3R,4R,5S,6R)-6-(acetoxymethyl)-3-(cyclobutanecarboxamido)tetrahydro-2H-pyran-2,4,5-triyl triacetate] |  | comparable to untreated cells |  | ~10 | lower ratios | comparable to untreated cells | negligible reduction |  |
